US11351134B2, “Small molecule agents, compositions, and formulations, for internal use, displaying inhibitory activity against gram-positive and/or gram-negative organisms” (NATUREZA, INC., priority 2017, dated 2022)

Key:
[1] = type: in vivo; conditions: mice, oral capsules approximately 4 mg active component in chitosan-containing particles, three times per day for seven days
Excerpt: Laboratory trials have shown that no resistance has developed in pathogens exposed to the compositions described herein, even with long term, repeated exposure (data not shown). In addition, no intrinsic resistance can or has been detected in target pathogens. […] A placebo group is also included, in which a group of 10 mice are given a placebo set of capsules, orally, three times per day and continued for seven days, each of the placebo set of capsules containing similarly prepared chitosan-containing particles without an active component, the preparation being generally as described herein. Initial mice have been infected with Salmonella typhimurium prior to oral delivery of one of the set of capsules. The capsules may be vegetable capsules. The capsules may have an enteric coating. For delivery, a formulation may be prepared in a manner understood in the relevant art. For delivery, a formulation may be in at least any one or more of the following forms: liquid, capsule, dried powder, mist, and the like. For delivery, the formulation will contain pharmaceutical grade materials, including one or more excipients and or fillers for internal and/or topical delivery in sufficient amounts known to those of skill in the relevant art. Flavors, colors, sugars, sugar-substitutes, and the like may also be included in any of the formulations, as is understood to those of skill in the relevant art.

[2] = tested on: representative Gram-positive pathogens and yeast; experiment: Broth microdilution of lecithin/chitosan compositions, sonicated and/or filtered; type: cell-based; conditions: composition with lecithin and chitosan
Excerpt: In a further preparation, lauric acid derivative, 12-aminododecanoic acid or 12-amino-1-dodecanoic acid methyl ester, was suspended individually (and independently) in an organic solvent, chloroform, and mixed with water, generally under agitated conditions. Here, for each sample, the amount of water to the amount of chloroform was at least 2:1, and was as high as 10:1. This was followed by chloroform evaporation, generally under vacuum using a freeze dryer. After removal of the chloroform, a lecithin solution was added to each sample. The lecithin was in a solution of acetic acid (e.g., 98 mM acetic acid and 2 mM sodium acetate), in which the amount of lecithin in solution was between about 1% to 5%. With addition of lecithin, each sample mixture contained up to about 4.8% lecithin (or generally about 5% or less), and up to about 7.8% of one of the lauric acid derivatives (or generally about 8% or less). pH of the solution was neutral. It is noted that the lecithin should be in a suitable form (e.g., solution or granules) acceptable for internal utilization (e.g., pharmaceutical grade). The lecithin may also include cholesterol, or other lecithin variants as described above, with similar results. Chitosan was then added to each of the samples, and each sample was then independently sonicated, followed by independent sterilization by high pressure filtration. […]

COC(=O)CCCCCCCCCCCN.Cl [12-amino-1-dodecanoic acid methyl ester HCl]
Safety in animal trials [1]: no safety concerns
Growth inhibitory activity against representative Gram-positive pathogens and yeast [2]: exhibited growth inhibitory activity
